These results are taken from article PMC3764824, “Base-modified Donor Analogues Reveal Novel Dynamic Features of a Glycosyltransferase” (The Journal of Biological Chemistry, 2013).

The target of data set [1] is T1, AAGlyB (GTA-L266G/G268A) (Homo sapiens, UniProt P16442, G268A/L266G).
T1 construct: gene ABO; soluble catalytic domain, N-terminally truncated (forward primer MIN2 encodes MVSLPRMVYPQP; C-terminus ...NP at residue 354), made in E. coli BL21-gold from pCWdeltalac; SP-Sepharose and UDP-hexanolamine-Sepharose; residues 58-354 stated ordered in UDP-HAA crystal
T1 sequence (P16442 64-354 L266G/G268A): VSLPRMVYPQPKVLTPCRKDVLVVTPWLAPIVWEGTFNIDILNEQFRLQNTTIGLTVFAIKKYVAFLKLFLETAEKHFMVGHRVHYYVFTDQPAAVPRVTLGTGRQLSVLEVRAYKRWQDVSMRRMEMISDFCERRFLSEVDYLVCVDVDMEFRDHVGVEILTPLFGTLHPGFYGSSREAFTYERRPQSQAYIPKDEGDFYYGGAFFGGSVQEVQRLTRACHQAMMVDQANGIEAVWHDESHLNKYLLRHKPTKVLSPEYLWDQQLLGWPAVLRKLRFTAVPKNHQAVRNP
Briefly: radiochemical Sep-Pak assay, Dixon plot. It is filed as biochemical. As to conditions: read-out: 2. From the text: radiochemical Sep-Pak assay, Dixon plot on AAGlyB (GTA-L266G/G268A)

Data set [2] addresses T2, AAGlyB (GTA-L266G/G268A) (Homo sapiens, UniProt P16442, L266G/G268A).
T2 construct: gene ABO; soluble catalytic domain, N-terminally truncated (forward primer MIN2 encodes MVSLPRMVYPQP; C-terminus ...NP at residue 354), made in E. coli BL21-gold from pCWdeltalac; SP-Sepharose and UDP-hexanolamine-Sepharose; residues 58-354 stated ordered in UDP-HAA crystal
T2 sequence (P16442 64-354 L266G/G268A): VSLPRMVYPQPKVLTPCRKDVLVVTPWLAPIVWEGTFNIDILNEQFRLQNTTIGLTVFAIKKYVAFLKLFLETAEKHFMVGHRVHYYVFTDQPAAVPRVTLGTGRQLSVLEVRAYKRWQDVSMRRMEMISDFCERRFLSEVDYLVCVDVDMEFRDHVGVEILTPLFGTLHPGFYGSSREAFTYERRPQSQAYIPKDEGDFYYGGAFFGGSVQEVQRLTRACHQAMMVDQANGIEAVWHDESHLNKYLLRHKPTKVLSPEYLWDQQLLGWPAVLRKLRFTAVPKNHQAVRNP
The data set can be described thus: capillary electrophoresis with LIF detection. It is filed as biochemical. Particulars: labelled compound; co-substrate compound 2 (33.3 μM), CE assay, 20 mM MnCl2, MOPS pH 7.0, 37 °C. From the text: (§1) capillary electrophoresis with LIF detection on AAGlyB (GTA-L266G/G268A)

For data set [3], the target named is T2, AAGlyB (GTA-L266G/G268A). The data set can be described thus: X-ray crystallography ([…] Å). It is filed as binding. Particulars: ternary complex with HAA; UDP carried over from purification.
Substrate in data set [4]: O=c1[nH]c(=O)n([C@@H]2O[C@H](COP(=O)(O)OP(=O)(O)O[C@H]3O[C@H](CO)[C@H](O)[C@H](O)[C@H]3O)[C@@H](O)[C@H]2O)cc1-c1ccccc1
The data set can be described thus: capillary electrophoresis with LIF detection. It is filed as biochemical, Homo sapiens. Particulars: 50 μM tetramethylrhodamine-labeled HAA, 20 mM MnCl2, 50 mM MOPS pH 7.0, 37 °C.
Description: as §1

On to `O=c1[nH]c(=O)n([C@@H]2O[C@H](COP(=O)(O)OP(=O)(O)O[C@H]3O[C@H](CO)[C@H](O)[C@H](O)[C@H]3O)[C@@H](O)[C@H]2O)cc1-c1ccccc1` [compound 2, UDP-Gal derivative 2], for which, in data set [1], the Ki stood at 3 µM.

What is called Km is the substrate concentration at which the rate is half of its maximum. Regarding “α-Fucp-(1→2)-β-Galp-O-(CH2)8CONH(CH2)2NH-CO-tetramethylrhodamine”, the Michaelis constant (Km) in data set [2] came to 56 ± 3 µM.

For `O=c1ccn([C@@H]2O[C@H](COP(=O)(O)OP(=O)(O)O)[C@@H](O)[C@H]2O)c(=O)[nH]1` [UDP], the “X-ray crystallography (1.8 Å)” value in data set [3] is “The AAGlyB-UDP-HAA structure shows very well defined electron density”.

B1: AAGlyB (GTA-L266G/G268A) (Homo sapiens; G268A/L266G) (protein)
chain: VSLPRMVYPQPKVLTPCRKDVLVVTPWLAPIVWEGTFNIDILNEQFRLQNTTIGLTVFAIKKYVAFLKLFLETAEKHFMVGHRVHYYVFTDQPAAVPRVTLGTGRQLSVLEVRAYKRWQDVSMRRMEMISDFCERRFLSEVDYLVCVDVDMEFRDHVGVEILTPLFGTLHPGFYGSSREAFTYERRPQSQAYIPKDEGDFYYGGAFFGGSVQEVQRLTRACHQAMMVDQANGIEAVWHDESHLNKYLLRHKPTKVLSPEYLWDQQLLGWPAVLRKLRFTAVPKNHQAVRNP
notes: soluble catalytic domain, N-terminally truncated (forward primer MIN2 encodes …; C-terminus ...NP at residue 354), made in E. coli BL21-gold from pCWdeltalac; SP-Sepharose and UDP-hexanolamine-Sepharose; residues 58-354 stated ordered in UDP-HAA crystal
As usually defined, the kcat is the maximal rate divided by the concentration of active sites. For B1, in data set [4], the Michaelis-Menten constant (Km) is 6.5 ± 0.5 µM and the catalytic constant (kcat) is 0.006 ± 0.0008 s⁻¹.
